Laboratory results from ChEMBL document CHEMBL3217751, “Potent inhibition of Ca2+-dependent activation of calpain-1 by novel mercaptoacrylates” (Medchemcomm, 2012).
Calls of active or inactive are those of the source. No cut-off for these calls is given here.

Tests used:
[1] = target: T1, Calpain-1 catalytic subunit (Sus scrofa, UniProt P35750); experiment: Inhibition of Ca2+-dependent activation of porcine calpain-1 using SucLY-AMC as substrate
T1 sequence (P35750 whole entry): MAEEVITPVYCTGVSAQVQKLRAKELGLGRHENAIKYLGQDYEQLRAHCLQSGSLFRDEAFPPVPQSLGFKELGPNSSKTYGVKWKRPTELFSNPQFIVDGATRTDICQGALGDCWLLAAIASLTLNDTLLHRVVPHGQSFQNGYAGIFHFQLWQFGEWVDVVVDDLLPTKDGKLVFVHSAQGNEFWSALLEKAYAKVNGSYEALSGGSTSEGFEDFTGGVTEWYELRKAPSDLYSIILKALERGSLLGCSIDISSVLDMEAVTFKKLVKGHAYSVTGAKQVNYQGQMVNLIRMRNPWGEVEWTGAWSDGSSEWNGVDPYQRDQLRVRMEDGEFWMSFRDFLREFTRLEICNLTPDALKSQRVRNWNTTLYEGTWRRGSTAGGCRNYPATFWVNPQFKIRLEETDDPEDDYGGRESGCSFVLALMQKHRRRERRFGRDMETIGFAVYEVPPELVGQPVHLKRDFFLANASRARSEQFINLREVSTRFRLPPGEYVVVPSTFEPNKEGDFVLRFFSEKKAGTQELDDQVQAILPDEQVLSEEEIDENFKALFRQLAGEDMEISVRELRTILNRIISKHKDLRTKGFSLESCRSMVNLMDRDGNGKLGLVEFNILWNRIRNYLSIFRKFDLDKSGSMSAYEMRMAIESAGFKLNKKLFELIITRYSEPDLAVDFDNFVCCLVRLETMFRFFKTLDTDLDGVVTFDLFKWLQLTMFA

[2] = target: T1, Calpain-1 catalytic subunit; experiment: Inhibition of Ca2+-dependent activation of porcine calpain-1 using H-K(FAM)-EVYGMMK(DABCYL)-OH as substrate by FRET assay
[3] = target: T2, Calpain-1 catalytic subunit (Homo sapiens, UniProt P07384); experiment: Inhibition of human erythrocytes mu-calpain using SLLVY-AMC as substrate after 60 mins
T2 sequence (P07384 whole entry): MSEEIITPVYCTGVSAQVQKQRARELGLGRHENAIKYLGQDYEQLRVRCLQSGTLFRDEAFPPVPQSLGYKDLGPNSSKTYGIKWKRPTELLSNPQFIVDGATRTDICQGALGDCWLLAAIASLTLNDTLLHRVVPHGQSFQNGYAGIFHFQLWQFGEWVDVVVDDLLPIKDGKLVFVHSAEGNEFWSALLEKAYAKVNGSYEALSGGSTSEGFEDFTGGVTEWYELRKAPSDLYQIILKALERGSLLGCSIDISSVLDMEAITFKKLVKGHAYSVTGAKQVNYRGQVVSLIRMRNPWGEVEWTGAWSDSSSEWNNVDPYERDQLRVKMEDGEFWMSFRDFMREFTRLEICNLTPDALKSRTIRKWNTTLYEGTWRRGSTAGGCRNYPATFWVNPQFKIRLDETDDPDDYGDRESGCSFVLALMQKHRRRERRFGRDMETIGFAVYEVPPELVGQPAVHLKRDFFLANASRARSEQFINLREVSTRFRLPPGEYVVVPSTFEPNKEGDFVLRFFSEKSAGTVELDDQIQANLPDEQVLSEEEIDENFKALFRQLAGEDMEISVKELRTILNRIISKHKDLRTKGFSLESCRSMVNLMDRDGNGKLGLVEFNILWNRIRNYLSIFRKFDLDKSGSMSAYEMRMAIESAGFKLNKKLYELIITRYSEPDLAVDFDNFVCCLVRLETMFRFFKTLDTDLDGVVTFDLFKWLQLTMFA

[4] = target: T3, Calpain-2 catalytic subunit (Homo sapiens, UniProt P17655); experiment: Inhibition of calpain-2 (unknown origin)
T3 sequence (P17655 whole entry): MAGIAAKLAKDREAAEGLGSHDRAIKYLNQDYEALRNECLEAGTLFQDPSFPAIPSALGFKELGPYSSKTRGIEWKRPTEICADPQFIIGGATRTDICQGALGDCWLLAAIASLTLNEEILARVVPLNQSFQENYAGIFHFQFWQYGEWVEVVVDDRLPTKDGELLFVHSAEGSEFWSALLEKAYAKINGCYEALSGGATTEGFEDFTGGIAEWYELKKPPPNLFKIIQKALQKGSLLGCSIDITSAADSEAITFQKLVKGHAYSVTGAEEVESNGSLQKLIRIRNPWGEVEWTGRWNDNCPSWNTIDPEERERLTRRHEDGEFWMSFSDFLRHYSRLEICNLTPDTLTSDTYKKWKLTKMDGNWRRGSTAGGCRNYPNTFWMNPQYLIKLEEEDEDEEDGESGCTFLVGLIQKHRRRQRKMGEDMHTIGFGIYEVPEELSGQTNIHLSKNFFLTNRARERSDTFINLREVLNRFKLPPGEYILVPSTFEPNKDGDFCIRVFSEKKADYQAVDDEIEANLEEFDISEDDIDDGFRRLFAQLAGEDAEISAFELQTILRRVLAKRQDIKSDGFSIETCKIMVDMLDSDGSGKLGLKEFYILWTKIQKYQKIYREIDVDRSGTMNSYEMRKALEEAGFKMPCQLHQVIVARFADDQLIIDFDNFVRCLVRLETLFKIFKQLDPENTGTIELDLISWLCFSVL

[5] = target: T4, Calpain-1 catalytic subunit (Homo sapiens) (UniProt P07384); experiment: Inhibition of calpain-1 in human neutrophils assessed as cell spreading at 10 uM
T4 sequence (whole entry): T2 sequence (P07384 whole entry)

Question: What does the source list for `O=C(O)/C(S)=C/c1c[nH]c2c(Br)cccc12`?
Answer: IC50 [1]: 70 nM; IC50 [2]: 2 nM

Question: Which results are given for `O=C(O)/C(S)=C/c1ccccc1Br`?
Answer: IC50 [1]: 9100 nM; IC50 [2]: 21000 nM

Question: Which results are given for `O=C(O)/C(S)=C/c1cccc(Cl)c1`?
Answer: IC50 [1]: 13100 nM; IC50 [2]: 4200 nM

Question: How did the IC50 [1] turn out when `O=C(O)/C(S)=C/c1c[nH]c2ccc(F)cc12` was run?
Answer: 930 nM

Question: What about the IC50 [2] of the same compound?
Answer: 800 nM

Question: And the Ki [3]?
Answer: 260 nM

Question: And the Ki [4]?
Answer: 5330 nM

Question: For `O=C(O)/C(S)=C/c1c[nH]c2cccc(Br)c12`, which IC50 [1] is on record?
Answer: 100 nM

Question: What about the IC50 [2] of the same compound?
Answer: 6 nM

Question: With `O=C(O)/C(S)=C/c1c[nH]c2ccc(Cl)cc12` as the compound, how does the IC50 [1] read?
Answer: 50 nM

Question: What about the IC50 [2] of the same compound?
Answer: 250 nM

Question: Which results are given for `O=C(O)/C(S)=C/c1c[nH]c2cc(Cl)ccc12`?
Answer: IC50 [1]: 100 nM; IC50 [2]: 210 nM; inhibition [5]: Active

Question: `O=C(O)/C(S)=C/c1ccccc1Cl` was tested. Which IC50 [1] did it give?
Answer: 20700 nM

Question: And the IC50 [2]?
Answer: 11900 nM

Question: What does the source list for `O=C(O)/C(S)=C/c1c[nH]c2cc(F)ccc12`?
Answer: IC50 [1]: 300 nM; IC50 [2]: 10 nM; inhibition [5]: Active

Question: Which results are given for `O=C(O)/C(S)=C/c1ccc(I)cc1`?
Answer: IC50 [1]: 5200 nM; IC50 [2]: 2200 nM; Ki [3]: 210 nM; Ki [4]: 370 nM

Question: What does the source list for `O=C(O)/C(S)=C/c1ccccc1F`?
Answer: IC50 [1]: 23200 nM; IC50 [2]: 21900 nM

Question: For `O=C(O)/C(S)=C/c1c[nH]c2cc(I)ccc12`, which IC50 [1] is on record?
Answer: 300 nM

Question: What about the IC50 [2] of the same compound?
Answer: 170 nM

Question: `O=C(O)/C(S)=C/c1ccc(Br)cc1` was tested. Which IC50 [1] did it give?
Answer: 1500 nM

Question: What about the IC50 [2] of the same compound?
Answer: 1500 nM

Question: With `O=C(O)/C(S)=C/c1cccc(I)c1` as the compound, how does the IC50 [1] read?
Answer: 23900 nM

Question: And the IC50 [2]?
Answer: 4300 nM

Question: `O=C(O)/C(S)=C/c1cccc(F)c1` was tested. Which IC50 [1] did it give?
Answer: 31500 nM

Question: And the IC50 [2]?
Answer: 19000 nM

Question: With `O=C(O)/C(S)=C/c1c[nH]c2ccc(I)cc12` as the compound, how does the IC50 [1] read?
Answer: 90 nM

Question: And the IC50 [2]?
Answer: 100 nM

Question: With `O=C(O)/C(S)=C/c1c[nH]c2cc(Br)ccc12` as the compound, how does the IC50 [1] read?
Answer: 90 nM

Question: What about the IC50 [2] of the same compound?
Answer: 7 nM

Question: What about the inhibition [5] of the same compound?
Answer: Active

Question: What does the source list for `O=C(O)/C(S)=C/c1ccc(Cl)cc1`?
Answer: IC50 [1]: 15000 nM; IC50 [2]: 2600 nM

Question: Which results are given for `O=C(O)/C(S)=C/c1c[nH]c2cccc(Cl)c12`?
Answer: IC50 [1]: 140 nM; IC50 [2]: 20 nM

Question: For `O=C(O)/C(S)=C/c1c[nH]c2c(I)cccc12`, which IC50 [1] is on record?
Answer: 220 nM

Question: What about the IC50 [2] of the same compound?
Answer: 90 nM

Question: With `O=C(O)/C(S)=C/c1cccc(Br)c1` as the compound, how does the IC50 [1] read?
Answer: 8400 nM

Question: And the IC50 [2]?
Answer: 4000 nM

Question: Which results are given for `O=C(O)/C(S)=C/c1ccc(F)cc1`?
Answer: IC50 [1]: 5600 nM; IC50 [2]: 6900 nM

Question: What does the source list for `O=C(O)/C(S)=C/c1c[nH]c2ccc(Br)cc12`?
Answer: IC50 [1]: 20 nM; IC50 [2]: 6 nM

Question: For `O=C(O)/C(S)=C/c1c[nH]c2cccc(F)c12`, which IC50 [1] is on record?
Answer: 300 nM

Question: And the IC50 [2]?
Answer: 10 nM

Question: Which IC50 [1] does the source give for `O=C(O)/C(S)=C/c1c[nH]c2c(F)cccc12` here?
Answer: 110 nM

Question: What about the IC50 [2] of the same compound?
Answer: 120 nM

Question: Which results are given for `O=C(O)/C(S)=C/c1c[nH]c2c(Cl)cccc12`?
Answer: IC50 [1]: 90 nM; IC50 [2]: 10 nM
